# Test results from US10435402B2, “Bicyclic compounds, compositions and medicinal applications thereof” (Advinus Therapeutics Limited, priority 2015, dated 2019).
# Target: T1, GAL4-DBD/RORγ-LBD (Homo sapiens, UniProt P51449)
# T1 construct: expressed in transfected cells; host or cells: HEK293T
# Experiment: RORγt transactivation reporter assay (GAL4-DBD/RORγ-LBD, luciferase read out)
# Type: cell-based
# Conditions: HEK293T cells, GAL4-UAS luciferase reporter, overnight (18-24 hours) incubation
# In short: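 HEK293T cells were transiently co-transfected with GAL4-DBD/RORγt-LBD (SV40-Renilla transfection control) and a 9×GAL4-UAS firefly Luc2P reporter. Compounds (0.4% DMSO in the compound solution) were added 5 h post-transfection in FBS-free DMEM for 18–24 h at 37 °C. IC50 was taken from the normalised Dual-Glo luciferase signal.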
# T1 sequence (P51449 269-508 limits assumed): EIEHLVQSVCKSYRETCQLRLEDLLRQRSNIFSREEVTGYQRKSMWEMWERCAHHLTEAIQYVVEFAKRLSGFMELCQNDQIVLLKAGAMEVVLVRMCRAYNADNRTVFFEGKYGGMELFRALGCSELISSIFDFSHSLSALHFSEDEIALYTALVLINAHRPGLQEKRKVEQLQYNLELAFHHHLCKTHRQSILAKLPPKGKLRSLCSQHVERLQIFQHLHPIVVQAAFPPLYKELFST
# T1 sequence (P04386 1-147 partner limits assumed): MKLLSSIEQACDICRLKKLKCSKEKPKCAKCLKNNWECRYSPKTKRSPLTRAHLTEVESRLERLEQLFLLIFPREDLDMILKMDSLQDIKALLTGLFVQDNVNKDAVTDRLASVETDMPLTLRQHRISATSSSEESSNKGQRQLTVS
row,Compound,IC50 [nM]
1,"O=C(O)c1ccc(-c2cc(C(=O)c3c(Cl)cccc3C(F)(F)F)n3c2CCCC3)c(F)c1 [Example H-4, 4-[3-[2-chloro-6-(trifluoromethyl)benzoyl]-5,6,7,8-tetrahydroindolizin-1-yl]-3-fluoro-benzoic acid]",> 5000
2,"O=C(O)c1ccc(-c2nc(C(=O)c3c(Cl)ccc(F)c3Cl)n3ccccc23)cc1 [Example I-1, Sodium 4-[3-(2,6-dichloro-3-fluoro-benzoyl)imidazo[1,5-a]pyridin-1-yl]benzoate]",< 500
3,"O=C(O)c1ccc(-c2cc(Cc3c(F)cccc3Cl)n3ccccc23)cc1 [Example J-1, 4-[3-[(2-chloro-6-fluoro-phenyl)methyl]indolizin-1-yl]benzoic acid]",< 500
4,"(2,6-dichlorophenyl)-[1-(4-methylsulfonylphenyl)indolizin-3-yl]methanone [Example A-20]",> 5000
5,ethyl 4-[3-(2-bromo-6-methyl-benzoyl)indolizin-1-yl]benzoate [Example A-66],< 500
6,ethyl 4-[3-(2-chloro-6-fluoro-benzoyl)-8-fluoro-indolizin-1-yl]-3-fluoro-benzoate [Example A-33],< 500
7,ethyl 4-[3-(2-chloro-6-fluoro-benzoyl)indolizin-1-yl]-3-fluoro-benzoate [Example A-25],< 500
